ChEMBL document CHEMBL1201862, “PubChem BioAssay data set” (2004)
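Five concentrations, 48 hours, 96-well plates. GI50 marks 50% less growth.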 Calls of active or inactive are those of the source. Rule as the data show it: active = GI50 up to about 1.1 µM and inactive = higher.

What was measured:
Assay in all cases: inhibition of tumour cell growth, NCI panel, 48 h
[1] = system: 786-0
[2] = system: A498
[3] = system: A549
[4] = system: ACHN
[5] = system: CAKI-1
[6] = system: CCRF-CEM
[7] = system: COLO 205
[8] = system: DLD-1
[9] = system: DMS-114
[10] = system: DMS-273
[11] = system: EKVX
[12] = system: HCC 2998
[13] = system: HCT-116
[14] = system: HCT-15
[15] = system: HL-60
[16] = system: HOP-18
[17] = system: HOP-62
[18] = system: HOP-92
[19] = system: HT-29
[20] = system: IGROV-1
[21] = system: K562
[22] = system: KM-20L2
[23] = system: KM12
[24] = system: LOX IMVI
[25] = system: LXFL 529
[26] = system: M14
[27] = system: M19-MEL
[28] = system: MOLT-4
[29] = system: Malme-3M
[30] = system: NCI-H23
[31] = system: NCI-H460
[32] = system: NCI-H522
[33] = system: OVCAR-3
[34] = system: OVCAR-4
[35] = system: OVCAR-5
[36] = system: OVCAR-8
[37] = system: SF-268
[38] = system: SF-295
[39] = system: SF-539
[40] = system: SK-MEL-28
[41] = system: SK-MEL-2
[42] = system: SK-MEL-5
[43] = system: SK-OV-3
[44] = system: SN12C
[45] = system: SNB-19
[46] = system: SNB-75
[47] = system: SNB-78
[48] = system: SR
[49] = system: SW-620
[50] = system: TK-10
[51] = system: U-251
[52] = system: UACC-257
[53] = system: UACC-62
[54] = system: UO-31
[55] = system: XF498
[56] = system: RPMI-8226
[57] = system: RXF 393
[58] = system: NCI-H226

`Cc1ccc2c(c1)NC(=O)C(N=[N+]=[N-])(c1ccccc1)C2=O` (stereo unspecified) was tested, and the GI50 [1] was 30.5 µM (inactive), the GI50 [2] was 39.9 µM (inactive) and the GI50 [3] was 50.5 µM (inactive). The GI50 [4] was 41.1 µM (inactive), the GI50 [5] was 24.4 µM (inactive) and the GI50 [6] was 28.4 µM (inactive). For the same molecule, the GI50 [7] was 14.1 µM (inactive), the GI50 [8] was 43 µM (inactive) and the GI50 [9] was 34.3 µM (inactive). For the same molecule, the GI50 [10] was 12.3 µM (inactive), the GI50 [11] was 30.3 µM (inactive) and the GI50 [12] was > 100 µM (inactive). The GI50 [13] was 35.2 µM (inactive), the GI50 [14] was 21.5 µM and the GI50 [15] was 16.4 µM (inactive). For the same molecule, the GI50 [16] was 26.1 µM (inactive), the GI50 [17] was 65.9 µM (inactive) and the GI50 [18] was 24.5 µM (inactive). The GI50 [19] was 20 µM (inactive), the GI50 [20] was 32.8 µM (inactive) and the GI50 [21] was 21 µM (inactive). For the same molecule, the GI50 [22] was 30.3 µM (inactive), the GI50 [23] was 15.2 µM (inactive) and the GI50 [24] was 18.3 µM (inactive). For the same molecule, the GI50 [25] was 24 µM (inactive), the GI50 [26] was 17 µM (inactive) and the GI50 [27] was 19.7 µM (inactive). The GI50 [28] was 24.7 µM (inactive), the GI50 [29] was 32.5 µM (inactive) and the GI50 [30] was 20 µM (inactive). For the same molecule, the GI50 [31] was 23.6 µM (inactive), the GI50 [32] was 20.8 µM (inactive) and the GI50 [33] was 18.9 µM (inactive). The GI50 [34] was 44.2 µM (inactive), the GI50 [35] was 33 µM (inactive) and the GI50 [36] was 27.2 µM (inactive). For the same molecule, the GI50 [37] was 45.2 µM (inactive), the GI50 [38] was 25.8 µM (inactive) and the GI50 [39] was 35.5 µM (inactive). For the same molecule, the GI50 [40] was 45.1 µM (inactive), the GI50 [41] was 17.9 µM (inactive) and the GI50 [42] was 23.1 µM (inactive). For the same molecule, the GI50 [43] was 33.9 µM (inactive), the GI50 [44] was 21.1 µM (inactive) and the GI50 [45] was 30.6 µM (inactive). The GI50 [46] was 33.4 µM (inactive), the GI50 [47] was 28.1 µM (inactive) and the GI50 [48] was 20.7 µM (inactive). For the same molecule, the GI50 [49] was 34.8 µM (inactive), the GI50 [50] was 34.4 µM (inactive) and the GI50 [51] was 25.8 µM (inactive). For the same molecule, the GI50 [52] was 29.5 µM (inactive), the GI50 [53] was 22.2 µM (inactive) and the GI50 [54] was 29 µM (inactive). For the same molecule, the GI50 [55] was 24.7 µM (inactive).
In the case of `C[N+](C)(C)CCC(=O)CC[N+](C)(C)C`, the GI50 [1] is reported as 18.9 µM (inactive), the GI50 [2] is reported as 70.5 µM (inactive) and the GI50 [3] is reported as > 100 µM (inactive). The GI50 [4] was 17 µM (inactive), the GI50 [5] was 15.7 µM (inactive) and the GI50 [6] was 2.49 µM (inactive). The GI50 [7] was 16.4 µM (inactive), the GI50 [8] was 16.2 µM (inactive) and the GI50 [9] was 20.8 µM (inactive). The GI50 [10] was 25.6 µM (inactive), the GI50 [11] was 55.3 µM (inactive) and the GI50 [12] was 16.2 µM (inactive). For the same molecule, the GI50 [13] was 18.4 µM (inactive), the GI50 [14] was 19.2 µM and the GI50 [15] was 4.09 µM (inactive). For the same molecule, the GI50 [16] was 17.1 µM (inactive), the GI50 [17] was > 100 µM (inactive) and the GI50 [19] was 13.5 µM (inactive). For the same molecule, the GI50 [20] was 87.3 µM (inactive), the GI50 [21] was 6.68 µM (inactive) and the GI50 [22] was 25.5 µM (inactive). The GI50 [23] was 20 µM (inactive), the GI50 [25] was 16.1 µM (inactive) and the GI50 [26] was 18.3 µM (inactive). For the same molecule, the GI50 [27] was 23.5 µM (inactive), the GI50 [28] was 4.14 µM (inactive) and the GI50 [29] was 19.7 µM (inactive). The GI50 [30] was 24.5 µM (inactive), the GI50 [31] was 28.2 µM (inactive) and the GI50 [32] was 15.4 µM (inactive). For the same molecule, the GI50 [33] was 18.6 µM (inactive), the GI50 [34] was 17.7 µM (inactive) and the GI50 [36] was 19.8 µM (inactive). The GI50 [56] was 4.68 µM (inactive), the GI50 [57] was 21.3 µM (inactive) and the GI50 [37] was 22.1 µM (inactive). The GI50 [38] was 18.7 µM (inactive), the GI50 [39] was 19.8 µM (inactive) and the GI50 [40] was 21.6 µM (inactive). The GI50 [41] was 21.5 µM (inactive), the GI50 [42] was 35.3 µM (inactive) and the GI50 [43] was > 100 µM (inactive). The GI50 [44] was > 10 µM (inactive), the GI50 [45] was > 100 µM (inactive) and the GI50 [46] was 19.9 µM (inactive). The GI50 [47] was 22.3 µM (inactive), the GI50 [49] was 16.1 µM (inactive) and the GI50 [50] was 17 µM (inactive). For the same molecule, the GI50 [51] was > 100 µM (inactive), the GI50 [52] was 17.6 µM (inactive) and the GI50 [53] was 21.5 µM (inactive). For the same molecule, the GI50 [54] was 92 µM (inactive) and the GI50 [55] was 21.2 µM (inactive).
For `NNC(=O)CNC(=O)c1ccc(Cl)cc1Cl`, the GI50 [1] was 39.8 µM (inactive), the GI50 [2] was > 100 µM (inactive) and the GI50 [3] was > 100 µM (inactive). For the same molecule, the GI50 [4] was > 100 µM (inactive), the GI50 [5] was > 100 µM (inactive) and the GI50 [6] was > 100 µM (inactive). For the same molecule, the GI50 [7] was > 100 µM (inactive), the GI50 [8] was > 100 µM (inactive) and the GI50 [9] was > 100 µM (inactive). For the same molecule, the GI50 [10] was > 100 µM (inactive), the GI50 [11] was > 100 µM (inactive) and the GI50 [12] was > 100 µM (inactive). For the same molecule, the GI50 [13] was 39.4 µM (inactive), the GI50 [14] was 32.7 µM and the GI50 [15] was > 100 µM (inactive). For the same molecule, the GI50 [16] was > 100 µM (inactive), the GI50 [17] was > 100 µM (inactive) and the GI50 [18] was > 100 µM (inactive). The GI50 [19] was 80.4 µM (inactive), the GI50 [20] was > 100 µM (inactive) and the GI50 [21] was > 100 µM (inactive). The GI50 [22] was > 100 µM (inactive), the GI50 [23] was > 100 µM (inactive) and the GI50 [25] was > 100 µM (inactive). The GI50 [26] was > 100 µM (inactive), the GI50 [27] was > 100 µM (inactive) and the GI50 [28] was > 100 µM (inactive). The GI50 [29] was > 100 µM (inactive), the GI50 [58] was > 100 µM (inactive) and the GI50 [30] was > 100 µM (inactive). The GI50 [31] was > 100 µM (inactive), the GI50 [32] was > 100 µM (inactive) and the GI50 [33] was > 100 µM (inactive). For the same molecule, the GI50 [34] was > 100 µM (inactive), the GI50 [35] was > 100 µM (inactive) and the GI50 [36] was > 100 µM (inactive). The GI50 [56] was > 100 µM (inactive), the GI50 [37] was > 100 µM (inactive) and the GI50 [38] was > 100 µM (inactive). For the same molecule, the GI50 [39] was > 100 µM (inactive), the GI50 [40] was > 100 µM (inactive) and the GI50 [42] was > 100 µM (inactive). The GI50 [43] was > 100 µM (inactive), the GI50 [44] was > 100 µM (inactive) and the GI50 [45] was > 100 µM (inactive). For the same molecule, the GI50 [46] was > 100 µM (inactive), the GI50 [49] was 15.8 µM (inactive) and the GI50 [50] was > 100 µM (inactive). The GI50 [51] was 39.6 µM (inactive), the GI50 [52] was > 100 µM (inactive) and the GI50 [53] was > 100 µM (inactive). The GI50 [54] was > 100 µM (inactive) and the GI50 [55] was 91.6 µM (inactive).
